The target in experiment [1] is T1, HIV-1 RT (Human immunodeficiency virus type 1 group M subtype B, UniProt P03366).
T1 construct: The heterodimeric p66/p51 RT was eluted with an imidazole gradient; p66 and p51 derived from p66 by proteolytic cleavage of the C-terminal RNAse H domain; made in house; host or cells: E. coli (M15 for the His-tagged subunits)
Description: biochemical. As to the method: RNA-dependent-DNA RT-polymerase activity was measured in a standard reaction assay using poly(rA)-(dT)15 as template/primer as described in Restle et al. (1990). Ten microliters of reverse transcriptase (RT) at 20 nM was incubated at 37° C. for 30 min with 20 μL of reaction buffer (50 mM Tris, pH 8.0, 80 mM KCl, 6 mM MgCl2, 5 mM DTT, 0.15 μM poly(rA-dT), 15 μM dTTP, 0.3 μCi 3H-dTTP). For peptide evaluation, HIV-1 RT was incubated with increasing concentrations of peptide inhibitors for […], and polymerase reaction was initiated by adding reaction buffer. Reactions were stopped by precipitation of nucleic acids with 5 ml of 20% trichloroacetic acid (TCA) solution for 2 h on ice, then filtered using a multiwell-sample collector (Millipore), and washed with 5% TCA solution. Filters were dried at 55° C. for 30 min and radionucleotide incorporation was determined by liquid scintillation spectrometry.
A series of peptides have been derived from Pep-A sequence (SEQ ID NO: 28), which is derived from HIV-1 reverse transcriptase. First, P1 peptide (SEQ ID NO: 1) was obtained by removing the N-terminal arginine of Pep-A. Then, additional peptides were generated by performing an alanine scan on P1. P1-derived peptides were evaluated using a standard polymerase RT assay. Reported data correspond to the mean of three separate experiments.

The test system of experiment [2] is HIV-1-LAI strain. As to conditions: for IC50, block of viral proliferation (in words): peptide associated with Pep-1. The method, then:
The anti-HIV activities of the peptides were assayed according to the methods described in Roisin et al. (2004). Phytohemagglutinin-P(PHA-P)-activated peripheral blood mononuclear cells (PBMC) treated by increasing concentrations of peptide (from 100 to 0.1 nM), one hour later, were infected with hundred 50% tissue culture infectious doses (TCID50) per 100,000 cells of the HIV-1-LAI strain (Barre-Sinoussi et al., 1983). This virus was amplified in vitro on PHA-P-activated PBMC. Viral stock was titrated using PHA-P-activated PBMC, and 50% TCID50 were calculated using Kärber's formula (Kärber, 1931). Samples were maintained throughout the culture, and cell supernatants were collected at day 7 post-infection and stored at −20° C. Viral replication was measured by quantifying reverse transcriptase (RT) activity in cell culture supernatants. In parallel, cytotoxicity of the compounds was evaluated in uninfected PHA-P-activated PBMC by colorimetric 3-(4-5 dimethylthiazol-2-yl)2,5diphenyl tetrazolium bromite (MTT) assay on day 7 (as described in Mossmann, 1983). Experiments were performed in triplicate and repeated with another blood donor. Data analyses were performed using SofiMax® Pro 4.6 microcomputer software: percent of inhibition of RT activity or of cell viability were plotted vs concentration and fitted with quadratic curves; 50% effective doses (ED50) and cytotoxic doses (CD50) were calculated.
In order to avoid any limitation due to the poor ability of peptides to cross cellular membranes, they were associated to the peptide-based nanoparticle delivery system Pep-1 (SEQ ID NO: 29), at a 1/10 molar ratio.

For experiment [3], the target named is T2, HIV-1 integrase (Human immunodeficiency virus type 1 group M subtype B, UniProt P04585).
T2 construct: Integrase is a 32 kDA viral protein that is biologically active under a multimeric form
Description: biochemical. The experiment is classed as binding. The method, then:
Fluorescein-labeled peptides (40 nM) were mixed with varying concentrations of integrase in 20 mM Tris pH 7.2, 50 mM NaCl, 10 mM MgCl2, and the r values were recorded.
Effect of the different peptides on the integrase (IN) activity, DNA binding and IN/DNA dissociation were evaluated as described in Example III.1 above, using fluorescence polarization and anisotropy measurements. Binding constant of the peptide for IN was determined by steady state fluorescence and anisotropy.

Experiment [4] concerns the target T2, HIV-1 integrase. Description: biochemical. The method, then: The simultaneous measurement of integrase-DNA interaction and subsequent 3′-processing activity by steady-state fluorescence anisotropy was performed as described in Guiot et al. (2006). […] After the initial DNA-binding step (performed at 25° C.), the 3′-processing activity was measured at 37° C. by fixed-time experiments: The reaction was stopped at varying times by adding SDS (0.25% final) which disrupts all IN-DNA complexes in the sample. The IN-mediated cleavage of the terminal GT dinucleotide (labeled by fluorescein on the 3′-end) leads to a significant decrease of r as compared to the r value corresponding to the fluorescein-labeled unprocessed DNA substrate. The fraction of released dinucleotide is calculated by using Eq. (1): […]

Where a SMILES comes first, the peptide text is derived from it. Bridges are numbered along the chain shown (N, C = ends). Where no end group is shown, it is not given here.

By Ki is commonly meant a dissociation constant, usually derived from enzyme kinetics or from competition with a known ligand. In general, EC50 refers to the concentration at which the effect is half-maximal. In general, Kd refers to the concentration at which binding is half-saturated.

Regarding `CC[C@H](C)[C@@H]1NC(=O)[C@H](Cc2c[nH]c3ccccc23)NC(=O)[C@H](CCC(=O)O)NC(=O)[C@H]([C@@H](C)O)NC(=O)[C@H](CC(C)C)NC(=O)[C@H](Cc2c[nH]c3ccccc23)NC(=O)[C@H](CCCCN)NC(=O)[C@H]([C@@H](C)O)NC(=O)CNC(=O)[C@@H](N)CSSC[C@@H](C(=O)O)NC(=O)[C@H](CCC(=O)O)NC(=O)[C@H](C)NC(=O)[C@H](CCC(=O)O)NC(=O)[C@H](C)NC(=O)[C@H]([C@@H](C)O)NC(=O)[C@H](CC(C)C)NC(=O)[C@@H]2CCCN2C1=O` [PAW-C1] (H-CGTKWLTEWIPLTAEAEC-OH; disulfide 1-18), the figures for the Ki in experiment [1] and in experiment [4] were 0.2 µM and 21 µM, respectively. For the same compound, the concentration giving a half-maximal response (EC50) in experiment [2] (read-out: EC50 HIV-1 lai, Table 10) was found to be 0.0012 µM. In addition, binding in experiment [3] was characterised by a dissociation constant (Kd) of 0.29 µM. In the case of `CC[C@H](C)[C@H](NC(=O)[C@@H](NC(=O)[C@H](CCC(=O)O)NC(=O)[C@@H](NC(=O)[C@H](CC(C)C)NC(=O)[C@H](C)NC(=O)[C@H](CCCCN)NC(=O)[C@@H](NC(=O)CNC(=O)[C@@H](N)CCCNC(=N)N)[C@@H](C)O)[C@@H](C)O)C(C)C)C(=O)N1CCC[C@H]1C(=O)N[C@@H](CC(C)C)C(=O)N[C@H](C(=O)N[C@@H](CCC(=O)O)C(=O)N[C@@H](CCC(=O)O)C(=O)N[C@@H](C)C(=O)N[C@@H](CCC(=O)O)C(=O)O)[C@@H](C)O` [Pep-A, reference compound], in experiment [1], the affinity, expressed as Ki, was 35 µM. The “antiviral activity (in words)” value in experiment [2] (associated to Pep-1) is listed as “no antiviral activity”. Regarding `CC[C@H](C)[C@H](NC(=O)[C@@H](NC(=O)[C@H](CCC(=O)O)NC(=O)[C@@H](NC(=O)[C@H](CC(C)C)NC(=O)[C@H](C)NC(=O)[C@H](CCCCN)NC(=O)[C@@H](NC(=O)CN)[C@@H](C)O)[C@@H](C)O)C(C)C)C(=O)N1CCC[C@H]1C(=O)N[C@@H](CC(C)C)C(=O)N[C@H](C(=O)N[C@@H](CCC(=O)O)C(=O)N[C@@H](CCC(=O)O)C(=O)N[C@@H](C)C(=O)N[C@@H](CCC(=O)O)C(=O)O)[C@@H](C)O` [Peptide P1], in experiment [1], the inhibitory constant (Ki) stood at 7.5 µM. The “increase in potency to inhibit RT polymerase over Pep-A” value in experiment [1] (relative to Pep-A) is given as 5 fold. For the same compound, the “IC50, block of viral proliferation (in words)” value (“IC50, block” for short) in experiment [2] was “low μM range”. In experiment [1], `CC[C@H](C)[C@H](NC(=O)[C@@H](NC(=O)[C@H](CCC(=O)O)NC(=O)[C@@H](NC(=O)[C@H](CC(C)C)NC(=O)[C@H](C)NC(=O)[C@H](CCCCN)NC(=O)[C@@H](NC(=O)[C@H](C)N)[C@@H](C)O)[C@@H](C)O)C(C)C)C(=O)N1CCC[C@H]1C(=O)N[C@@H](CC(C)C)C(=O)N[C@H](C(=O)N[C@@H](CCC(=O)O)C(=O)N[C@@H](CCC(=O)O)C(=O)N[C@@H](C)C(=O)N[C@@H](CCC(=O)O)C(=O)O)[C@@H](C)O` [Peptide P2] registered a Ki of 28 ± 11 µM. `CC[C@H](C)[C@H](NC(=O)[C@@H](NC(=O)[C@H](CCC(=O)O)NC(=O)[C@@H](NC(=O)[C@H](CC(C)C)NC(=O)[C@H](C)NC(=O)[C@H](CCCCN)NC(=O)[C@H](C)NC(=O)CN)[C@@H](C)O)C(C)C)C(=O)N1CCC[C@H]1C(=O)N[C@@H](CC(C)C)C(=O)N[C@H](C(=O)N[C@@H](CCC(=O)O)C(=O)N[C@@H](CCC(=O)O)C(=O)N[C@@H](C)C(=O)N[C@@H](CCC(=O)O)C(=O)O)[C@@H](C)O` [Peptide P3]: the Ki in experiment [1] was found to be 10.3 ± 2.1 µM. `CC[C@H](C)[C@H](NC(=O)[C@@H](NC(=O)[C@H](CCC(=O)O)NC(=O)[C@@H](NC(=O)[C@H](CC(C)C)NC(=O)[C@H](C)NC(=O)[C@H](C)NC(=O)[C@@H](NC(=O)CN)[C@@H](C)O)[C@@H](C)O)C(C)C)C(=O)N1CCC[C@H]1C(=O)N[C@@H](CC(C)C)C(=O)N[C@H](C(=O)N[C@@H](CCC(=O)O)C(=O)N[C@@H](CCC(=O)O)C(=O)N[C@@H](C)C(=O)N[C@@H](CCC(=O)O)C(=O)O)[C@@H](C)O` [Peptide P4] had an inhibition constant (Ki) in experiment [1] of 15 ± 2.9 µM. Still for that read-out and setting: then `CC[C@H](C)[C@H](NC(=O)[C@@H](NC(=O)[C@H](CCC(=O)O)NC(=O)[C@@H](NC(=O)[C@H](CC(C)C)NC(=O)CNC(=O)[C@H](CCCCN)NC(=O)[C@@H](NC(=O)CN)[C@@H](C)O)[C@@H](C)O)C(C)C)C(=O)N1CCC[C@H]1C(=O)N[C@@H](CC(C)C)C(=O)N[C@H](C(=O)N[C@@H](CCC(=O)O)C(=O)N[C@@H](CCC(=O)O)C(=O)N[C@@H](C)C(=O)N[C@@H](CCC(=O)O)C(=O)O)[C@@H](C)O` [Peptide P5], with 20 ± 3.7 µM; and `CC[C@H](C)[C@H](NC(=O)[C@@H](NC(=O)[C@H](CCC(=O)O)NC(=O)[C@@H](NC(=O)[C@H](CC(C)C)NC(=O)[C@H](C)NC(=O)[C@H](CCCCN)NC(=O)[C@@H](NC(=O)CN)[C@@H](C)O)[C@@H](C)O)C(C)C)C(=O)N1CCC[C@H]1C(=O)N[C@@H](CC(C)C)C(=O)N[C@H](C(=O)N[C@@H](C)C(=O)N[C@@H](CCC(=O)O)C(=O)N[C@@H](C)C(=O)N[C@@H](CCC(=O)O)C(=O)O)[C@@H](C)O` [Peptide P14], with 14 ± 3 µM; and `CC[C@H](C)[C@H](NC(=O)[C@@H](NC(=O)[C@H](CCC(=O)O)NC(=O)[C@@H](NC(=O)[C@H](CC(C)C)NC(=O)[C@H](C)NC(=O)[C@H](CCCCN)NC(=O)[C@@H](NC(=O)CN)[C@@H](C)O)[C@@H](C)O)C(C)C)C(=O)N1CCC[C@H]1C(=O)N[C@@H](CC(C)C)C(=O)N[C@H](C(=O)N[C@@H](CCC(=O)O)C(=O)N[C@@H](C)C(=O)N[C@@H](C)C(=O)N[C@@H](CCC(=O)O)C(=O)O)[C@@H](C)O` [Peptide P15], with 14 ± 2.2 µM. For `CC[C@H](C)[C@H](NC(=O)[C@@H](NC(=O)[C@H](CCC(=O)O)NC(=O)[C@@H](NC(=O)[C@H](CC(C)C)NC(=O)[C@H](C)NC(=O)[C@H](CCCCN)NC(=O)[C@@H](NC(=O)CN)[C@@H](C)O)[C@@H](C)O)C(C)C)C(=O)N1CCC[C@H]1C(=O)N[C@@H](CC(C)C)C(=O)N[C@H](C(=O)O)[C@@H](C)O` [Peptide P18], in experiment [1], the Ki turned out to be 53 ± 12 µM and the “inhibition of RT polymerase activity (in words)” value was “does not inhibit RT polymerase activity”.

GAKTETLVIPETELEA [Pscramble] showed a Ki in experiment [1] of 61 ± 12 µM. In turn, GTKAATEVIPLT [Peptide P19] yielded a Ki in experiment [1] of 49 ± 9 µM.

GTKAATEVIPLTEEAE [Peptide P6] had a Ki in experiment [1] of 5.7 µM. Also, the “IC50, block” value in experiment [2] is “low μM range”. Compound GTKALAEVIPLTEEAE [Peptide P7] came in with a Ki in experiment [1] of 13.5 ± 2.1 µM. In experiment [1], GTKALTEAIPLTEEAE [Peptide P9] displayed a Ki of 15 ± 7.3 µM.

Consider GTKALTEVAPLTEEAE [Peptide P10], for which, in experiment [1], the affinity corresponds to a Ki of 7.3 µM. In addition, the “IC50, block” value in experiment [2] is given as “low μM range”.

As to GTKALTEVIALTEEAE [Peptide P11], the Ki in experiment [1] is 7 µM. Further, the “IC50, block” value in experiment [2] is “low μM range”.

Regarding GTKALTEVIPATEEAE [Peptide P12], the Ki in experiment [1] was 22 ± 3 µM. Compound GTKALTEVIPLAEEAE [Peptide P13] came in with a Ki in experiment [1] of 10.2 ± 2.5 µM.

In turn, GTKAWTEVWPL [Peptide P17] showed a Ki in experiment [1] of 35 ± 11 µM. The “reduction of efficiency (higher Ki) relative to PAW” value in experiment [1] (relative to PAW) worked out at 50 fold. Consider GTKWATEWAPLTAEAE [Peptide P28], for which, in experiment [1], the affinity, expressed as Ki, was 2 ± 0.6 µM. On to KWLTEWIPLTAE [Peptide P29], for which, in experiment [1], the affinity, expressed as Ki, was 1 ± 0.4 µM.

For the origin of these results see US20110294728A1, “Antiviral Polypeptides” (priority 2008, published 2011).
